System: MTHFD2
Assay: MTHFD2 knockdown efficiency by qPCR and Western analyses after siRNA transfection
Assay type: cell-based
Settings: LNCaP cells, mRNA by qRT-PCR
Description: FIG. 1: MTHFD2 knockdown inhibits growth of PCa cells, PDX-derived organoids, and tumor xenografts. A. MTHFD2 knockdown efficiency was determined in LNCaP and DU145 cells that were transfected with either scrambled siRNA or two independent MTHFD2-specific siRNAs for 48 hours by both qPCR and Western analyses. B. LNCaP, VCaP, or 22Rv1 cells transfected with control or MTHFD2-specific siRNAs were cultured for the indicated times, and cell numbers were determined by trypan blue staining. *p<0.01. MTHFD2 knockdown hinders colony (C-D) and prostatosphere (E) formation ability of PCa cells. F. Viability of normal prostate cells is not affected by MTHFD2 knockdown. G. MTHFD2 expression and knockdown efficiency in various LuCaP organoids were assessed by Western analysis.
FIG. 4: A. LNCaP cells were transfected with MTHFD2 (siMTHFD2 #1) or non-targeting control siRNAs. Cells were cultured for the indicated time points, collected, and MTHFD2 mRNA levels were determined by qRT-PCR. […] B. LNCaP and DU145 cells were reverse transfected with either control siRNA or two independent siRNAs against MTHFD2. After 48 hours, relative cell viability was determined using the CCK8 assay. C. Bar graph showing quantification of PDX derived organoids representing the number of organoids per field in FIG. 1H.
Briefly, cells were reverse transfected using Lipofectamine RNAiMAX transfection reagent (ThermoFisher) and plated into 96-well or 6-well plates. Cells in 6-well plates were cultured for the indicated times, trypsinized, stained with trypan blue, and counted using a hemocytometer. […] Cells plated into the 96-well plates were cultured for 48 hrs and cell viability was measured using the CCK-8 kit (Bimake, Munich, Germany).
RNA extraction, reverse transcription and quantitative polymerase chain reaction (qPCR) were performed as described previously (Sheng X, Arnoldussen Y J, Storm M. Tesikova M, Nenseth H Z, Zhao S, et al. Divergent androgen regulation of unfolded protein response pathways drives prostate cancer. EMBO Mol Med 2015; 7:788-801). […]

siMTHFD2-2: MTHFD2-specific siRNA CAGGCCAGCTCAAGAAGCAAA; location 1140; positive control in Example 3 (chain 2 CAGGCCAGCUCAAGAAGCAAA; chemistry not given here; one strand in two spellings)
MTHFD2 knockdown, maximal (72 hours post-transfection): ~80% | return of MTHFD2 to basal levels (time course after transfection): ≤ 12 days | time MTHFD2 remained significantly downregulated (time course after transfection): more than one week

Source: patent US20240287525A1, “COMPOSITIONS AND METHODS FOR TREATING CANCER” (OSLO UNIVERSITETSSYKEHUS HF, priority 2021, published 2024)
